Source: US20200024278A1, “COMPOSITION COMPRISING ANTIBIOTIC COMPOUND AND AN HETEROCYCLIC COMPOUND AND THEIR USE IN PREVENTING OR TREATING BACTERIAL INFECTIONS” (MUTABILIS, priority 2016, published 2020)

Key:
Experiment in all cases: MIC, broth microdilution (CLSI), substance alone or ATB combined with compound at 4 or 8 μg/mL
[1] = tested on: SAU 29213; type: cell-based, S. aureus; conditions: SAU 29213
Procedure: (§1) Compounds of the present invention were assessed against genotyped bacterial strains alone or in combination with an antibacterial. In the assays, MICs of said compounds or combination of antibiotics with fixed concentrations of said compounds (4 or 8 μg/mL) were determined by the broth microdilution method according to the Clinical Laboratory Standards Institute (CLSI-M7-A7). Briefly, compounds alone according to the invention were prepared in DMSO and spotted (2 μL each) on sterile polystyrene plates (Corning, 3788). Combinations of compounds and antibiotics dilutions were prepared in DMSO and spotted (1 μL each) on sterile polystyrene plates (Corning, 3788). Log phase bacterial suspensions were adjusted to a final density of 5·10^5 CFU/mL in cation-adjusted Mueller-Hinton broth (ca-MHB; Becton-Dickinson and Company) and added to each well (98 μL). Assays including Fosfomycin were supplemented with 25 μg/ml of Glucose-6-phosphate. Microplates were incubated for 16-20 h at 35° C. in ambient air. The MIC of the compounds was defined as the lowest concentration of said compounds that prevented bacterial growth as read by visual inspection. The MIC of ATB at each compound concentration was defined as the lowest concentration of ATB that prevented bacterial growth as read by visual inspection.

[2] = tested on: ECL P99; type: cell-based, E. cloacae; conditions: ECL P99
Procedure: as §1

[3] = tested on: PAE UFR90; type: cell-based, P. aeruginosa; conditions: PAE UFR90
Procedure: as §1

[4] = tested on: PAE UFR48; type: cell-based, P. aeruginosa; conditions: PAE UFR48
Procedure: as §1

[5] = tested on: PAE 105250; type: cell-based, P. aeruginosa; conditions: PAE 105250
Procedure: as §1

[6] = tested on: SPN 49619; type: cell-based, S. pneumoniae; conditions: SPN 49619
Procedure: as §1

[7] = tested on: ECO 190317; type: cell-based, E. coli; conditions: ECO 190317
Procedure: as §1

[8] = tested on: ECO UFR39; type: cell-based, E. coli; conditions: ECO UFR39
Procedure: as §1

MIC ATB alone ([1]; antibiotic alone): 16 µg/mL
MIC ATB combined with Example 1 @8 μg/ml ([1]; with Example 1 @8 μg/ml): 16 µg/mL
MIC ATB combined with Example 1 @8 μg/ml ([1]; with Example 1 at 8 μg/ml): 16 µg/mL
MIC ATB combined with Example 7 @8 μgml ([1]; with Example 7 at 8 μg/ml): 4 µg/mL
MIC ATB combined with Example 11 @8 μg/ml ([1]; with Example 11 at 8 μg/ml): <=0.031 μg/mL
MIC ATB combined with Example 13 @8 μg/ml ([1]; with Example 13 at 8 μg/ml): 4 µg/mL
MIC ATB combined with Example 15 @4 μgml ([1]; with Example 15 at 4 μg/ml): 0.063 µg/mL
MIC ATB alone ([2]; antibiotic alone): 512 µg/mL
MIC ATB combined with Example 1 @8 μg/ml ([2]; with Example 1 @8 μg/ml): <0.031 µg/mL
MIC ATB combined with Example 1 @8 μg/ml ([2]; with Example 1 at 8 μg/ml): <0.031 µg/mL
MIC ATB alone ([3]; antibiotic alone): >1024 µg/mL
MIC ATB combined with Example 1 @8 μg/ml ([3]; with Example 1 @8 μg/ml): <0.031 µg/mL
MIC ATB combined with Example 1 @8 μg/ml ([3]; with Example 1 at 8 μg/ml): <0.031 µg/mL
MIC ATB combined with Example 12 @8 μg/ml ([3]; with Example 12 at 8 μg/ml): >32 µg/mL
MIC ATB combined with Example 14 @8 μg/ml ([3]; with Example 14 at 8 μg/ml): >32 µg/mL
MIC ATB combined with Example 16 @4 μg/ml ([3]; with Example 16 at 4 μg/ml): >32 µg/mL
MIC ATB alone ([4]; antibiotic alone): 512 µg/mL
MIC ATB combined with Example 1 @8 μg/ml ([4]; with Example 1 @8 μg/ml): <0.031 µg/mL
MIC ATB combined with Example 1 @8 μg/ml ([4]; with Example 1 at 8 μg/ml): <0.031 µg/mL
MIC ATB combined with Example 12 @8 μg/ml ([4]; with Example 12 at 8 μg/ml): >32 µg/mL
MIC ATB combined with Example 14 @8 μg/ml ([4]; with Example 14 at 8 μg/ml): >32 µg/mL
MIC ATB combined with Example 16 @4 μg/ml ([4]; with Example 16 at 4 μg/ml): >32 µg/mL
MIC ATB combined with Example 12 @8 μg/ml ([5]; with Example 12 at 8 μg/ml): >32 µg/mL
MIC ATB combined with Example 14 @8 μg/ml ([5]; with Example 14 at 8 μg/ml): >32 µg/mL
MIC ATB combined with Example 16 @4 μg/ml ([5]; with Example 16 at 4 μg/ml): >32 µg/mL
MIC ATB alone ([6]; antibiotic alone): 4 µg/mL
MIC ATB combined with Example 1 @8 μg/ml ([6]; with Example 1 @8 μg/ml): 4 µg/mL
MIC ATB combined with Example 1 @8 μg/ml ([6]; with Example 1 at 8 μg/ml): 4 µg/mL
MIC ATB combined with Example 7 @8 μgml ([6]; with Example 7 at 8 μg/ml): 2 µg/mL
MIC ATB combined with Example 11 @8 μg/ml ([6]; with Example 11 at 8 μg/ml): 2 µg/mL
MIC ATB combined with Example 13 @8 μg/ml ([6]; with Example 13 at 8 μg/ml): 2 µg/mL
MIC ATB combined with Example 15 @4 μgml ([6]; with Example 15 at 4 μg/ml): 2 µg/mL
MIC ATB combined with Example 16 @4 μg/ml ([6]; with Example 16 at 4 μg/ml): <=0.031 μg/mL
MIC ATB alone ([7]; antibiotic alone): 8 µg/mL
MIC ATB combined with Example 1 @8 μg/ml ([7]; with Example 1 @8 μg/ml): <0.031 µg/mL
MIC ATB combined with Example 1 @8 μg/ml ([7]; with Example 1 at 8 μg/ml): <0.031 µg/mL
MIC ATB combined with Example 7 @8 μgml ([7]; with Example 7 at 8 μg/ml): <0.031 µg/mL
MIC ATB combined with Example 13 @8 μg/ml ([7]; with Example 13 at 8 μg/ml): <0.031 µg/mL
MIC ATB alone ([8]; antibiotic alone): 64 µg/mL
MIC ATB combined with Example 1 @8 μg/ml ([8]; with Example 1 @8 μg/ml): <0.031 µg/mL
MIC ATB combined with Example 1 @8 μg/ml ([8]; with Example 1 at 8 μg/ml): <0.031 µg/mL
MIC ATB combined with Example 7 @8 μgml ([8]; with Example 7 at 8 μg/ml): <0.031 µg/mL
MIC ATB combined with Example 13 @8 μg/ml ([8]; with Example 13 at 8 μg/ml): <=0.031 μg/mL
Structure (SMILES): O=C(N[C@H](CO)[C@H](O)c1ccc([N+](=O)[O-])cc1)C(Cl)Cl [CM]
